Legend:
hERG = hERG (Homo sapiens (Human), UniProt Q12809); test: hERG inhibition, whole-cell patch clamp; type: cell-based; conditions: HEK293 cells stably transfected with hERG, tail current at -50 mV
Experimental: For hERG inhibition assays, the cells used were HEK293 cells stably transfected with hERG (cell line obtained from Cytocentrics Inc. 3463 Magic Drive San Antonio, Tex. 78229). Composition of External Solution: NaCl, 137 mM; KCl, 4 mM; MgCl2, 1.0 mM; CaCl2, 1.8 mM; HEPES 10 mM; Dextrose 11 mM; Adjusted to a pH of 7.4 with NaOH. Composition of Internal Solution: KCl, 130.0 mM; MgCl2, 1.0 mM; HEPES, 5.0 mM; EGTA, 5.0 mM; NaCl 7.0 mM. Adjusted to a pH of 7.2 using KOH. Test Concentrations: 0.1, 1, 10, 100 μM. Vehicle: DMSO. Experiments were performed at 34+/−1° C. Current was recorded using the whole-cell patch clamp technique on the Cytopatch automated platform. hERG current was elicited with the following voltage protocol: hERG current amplitude was measured as the peak current at −50 mV (tail current). […] Each cell served as its own control. Data are presented as the IC50 calculated by non-linear regression analysis.

[1] = system: CYP1A2, CYP2C9, CYP2C19, CYP3A4, CYP2D6; test: Cyp inhibition in human liver microsomes (all isozymes); type: in vitro ADME
Experimental: For Cyp inhibition, human liver microsomes from BD Gentest were incubated with Compound 028 or Compound 032 (10, 3.33, 1.11, 0.37, 0.12, 0.04, 0.01 μM) and substrate (CYP1A2: Phenacetin at 30 μM; CYP2C9: Diclofenac at 10 μM; CYP2C19: S-Mephenytoin at 35 μM; CYP3A4: Midazolam at 5 μM and Testosterone at 80 μM; CYP2D6: Bufuralol at 10 μM) for the following incubation times: CYP1A2, 2C9, 2D6: 10 minutes, 37° C.; CYP2C19: 45 minutes, 37° C.; CYP3A4: 5 minutes, 37° C. Substrate conversion was measured by liquid chromatography/mass spectrometry/mass spectrometry (LC/MS/MS). Inhibition was calculated by curve fitting in Graph Pad Prism.

[2] = Rat cassette dosing pharmacokinetics (IV and PO); type: in vivo; conditions: male SD rats, plasma
HDAC1 = HDAC1 (Homo sapiens (Human), UniProt Q13547); test: HDAC enzyme assay; type: biochemical; conditions: 10 min preincubation, 16 μM substrate
HDAC1, sequence (Q13547 whole entry): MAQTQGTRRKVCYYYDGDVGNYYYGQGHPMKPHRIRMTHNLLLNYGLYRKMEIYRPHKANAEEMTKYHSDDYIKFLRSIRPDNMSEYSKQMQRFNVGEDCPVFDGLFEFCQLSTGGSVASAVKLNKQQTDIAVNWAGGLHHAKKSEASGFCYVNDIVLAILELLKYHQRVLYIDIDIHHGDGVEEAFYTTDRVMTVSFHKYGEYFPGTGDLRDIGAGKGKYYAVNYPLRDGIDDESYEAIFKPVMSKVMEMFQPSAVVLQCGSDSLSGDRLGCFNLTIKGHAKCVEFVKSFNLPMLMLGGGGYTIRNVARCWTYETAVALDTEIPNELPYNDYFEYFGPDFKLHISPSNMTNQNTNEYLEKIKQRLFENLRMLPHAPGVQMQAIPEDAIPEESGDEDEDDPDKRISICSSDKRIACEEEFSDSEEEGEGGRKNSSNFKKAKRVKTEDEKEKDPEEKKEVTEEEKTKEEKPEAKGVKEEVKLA

hERG, sequence (Q12809 whole entry): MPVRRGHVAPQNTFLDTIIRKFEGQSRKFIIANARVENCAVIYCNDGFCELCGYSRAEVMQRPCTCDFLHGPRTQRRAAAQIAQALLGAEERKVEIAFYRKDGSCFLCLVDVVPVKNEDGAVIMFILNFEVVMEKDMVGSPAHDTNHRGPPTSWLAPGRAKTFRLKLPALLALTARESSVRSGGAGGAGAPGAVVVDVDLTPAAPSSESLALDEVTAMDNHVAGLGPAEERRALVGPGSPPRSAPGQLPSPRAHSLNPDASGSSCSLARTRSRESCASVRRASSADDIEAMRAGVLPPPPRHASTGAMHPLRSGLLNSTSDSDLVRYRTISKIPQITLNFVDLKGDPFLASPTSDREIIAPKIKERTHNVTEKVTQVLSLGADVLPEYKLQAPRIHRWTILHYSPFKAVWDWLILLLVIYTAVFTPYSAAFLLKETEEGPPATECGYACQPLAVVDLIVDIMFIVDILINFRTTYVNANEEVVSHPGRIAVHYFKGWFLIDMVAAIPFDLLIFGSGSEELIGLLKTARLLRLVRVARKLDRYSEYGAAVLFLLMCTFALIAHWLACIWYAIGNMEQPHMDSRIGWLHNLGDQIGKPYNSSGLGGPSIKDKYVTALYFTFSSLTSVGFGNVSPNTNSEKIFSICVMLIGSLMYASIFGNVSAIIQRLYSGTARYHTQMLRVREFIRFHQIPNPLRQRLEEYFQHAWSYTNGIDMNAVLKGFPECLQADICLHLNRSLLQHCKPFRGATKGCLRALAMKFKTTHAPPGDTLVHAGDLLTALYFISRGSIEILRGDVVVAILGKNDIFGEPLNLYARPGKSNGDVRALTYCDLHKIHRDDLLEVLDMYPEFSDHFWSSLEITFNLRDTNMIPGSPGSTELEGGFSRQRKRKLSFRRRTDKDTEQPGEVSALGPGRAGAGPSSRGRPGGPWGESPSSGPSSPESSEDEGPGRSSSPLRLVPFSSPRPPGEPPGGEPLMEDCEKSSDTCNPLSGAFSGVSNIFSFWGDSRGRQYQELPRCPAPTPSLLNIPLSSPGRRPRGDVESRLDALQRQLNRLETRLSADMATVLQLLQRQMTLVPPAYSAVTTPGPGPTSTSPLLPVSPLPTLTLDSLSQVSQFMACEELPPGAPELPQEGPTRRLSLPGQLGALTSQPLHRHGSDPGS

| Structure (SMILES) | IC50 (hERG) [µM] | IC50 [1] [µM] | AUC ([2]; PO 5 mg/kg) [ng·h/mL] | Cmax ([2]; PO 5 mg/kg) [ng/mL] | half-life ([2]; PO 5 mg/kg, read-out: PO T1/2 (converted)) [h] | bioavailability ([2]; 5 mg/kg, oral AUC to IV AUC, dose adjusted) [%] | IC50 (HDAC1) [µM] |
| --- | --- | --- | --- | --- | --- | --- | --- |
| CN1CCN(c2ncc(C(=O)Nc3cc(-c4cccs4)ccc3N)s2)CC1 [Compound 030] | 70 | > 10 | 15300 | 944 | 12.8 | 170 | – |
| Nc1ccc(-c2ccccc2)cc1NC(=O)c1ncc(N2CCNCC2)s1 [Compound 049] | – | – | – | – | – | – | < 0.01 |

— patent US10774056B2, “Substituted piperazines as selective HDAC1,2 inhibitors” (REGENACY PHARMACEUTICALS, LLC, priority 2016, dated 2020)
